Data as given in US8497352B2, “Use of Wnt5-α peptide derivates for the treatment of melanoma and gastric cancer” (Wntresearch AB, priority 2008, dated 2013).
Entries after “also recorded” stand apart in the source; their conditions may differ. Bridges are numbered along the chain shown (N, C = ends). Where no end group is shown, it is not given here. The star is where a group is joined. Boc = CC(C)(C)OC(=O)*

Experiments:
Type in all cases: cell-based, human
[1] = tested on: Wnt-5a-induced Ca^2+ signaling; assay: Determination of cytosolic free calcium levels (fura-2) in A2058 cells; details: for Cytosolic Ca^2+ response in A2058 cells, control G-protein coupled receptor ligands: endothelin-1 10 nM, charbacol 5 μM
Protocol: Cells grown on a glass cover slip were incubated with 4 μM fura-2/AM in culture medium for 30 minutes at 37° C. (Dejmek et al., 2006). After fura-2 loading of the cells, the cover slips were washed and mounted in a specially designed chamber to which was added a calcium-containing medium (136 mM NaCl, 4.7 mM KCl, 1.2 mM MgSO4, 1.1 mM CaCl2, 1.2 KH2PO4, 5 mM NaHCO3, 5.5 mM glucose and 20 mM Hepes, pH 7.4). The chamber was then placed in a system consisting of a NIKON Diaphot microscope connected to a Photon Technology International (PTI) imaging system. The cells were first allowed to rest for 10 minutes before any stimulation was performed. Fura-2 fluorescence was then recorded continuously from the cells before and after the stimulations with either Wnt-5a, endothelin-1 or charbacol (as indicated in the legend to FIG. 8) using an excitation wavelength rapidly alternating between 340 and 380 nm, while the emission wavelength was set at 510 nm. The fluorescence intensity ratios (340/380 nm) were subsequently calculated and analyzed using the PTI Image Master Software. Statistical analysis—The Student's t-test for unpaired samples was used to analyze differences in the experiments, where *=p<0.05, **=p<0.01, and ***=p<0.001

A2058 melanoma cells [2] = assay: BD Matrigel invasion chamber assay, A2058 cells
Protocol: (§1) Cell invasion was analyzed using the BD Matrigel™ invasion chamber assay (BD Biosciences, Bedford, Mass.). Prior to the initiation of each experiment, the cells were detached with Versene and re-suspended as single cells in serum-free RPMI medium. As indicated, cells were pre-incubated with the Box5 peptide (100 μM) or control solvent for 40 min with continuous agitation. An aliquot of the cell suspension containing 25,000 cells and 100 μM Box5 or control solvent was then added to the upper transwell chamber, and the lower chamber was filled with serum-containing (10%) medium. The invasion chambers were shaken horizontally for 5 min to ensure even distribution of the cells in suspension and subsequently across the membrane surface. The cells were allowed to invade for the periods of time indicated at 37° C. in a humidified atmosphere of 5% CO2. The medium was discarded and cells were fixed in 4% paraformaldehyde for 10 min. The cells were stained with 0.5% crystal violet in 20% methanol for 10 min and the non-invading cells on the inner side of the membrane were removed with a cotton-tipped applicator. The membrane was cut out of the chamber using a scalpel blade and the stained cells on the lower chamber side of the membrane were counted.

A2058 melanoma cells [3] = assay: Wound-healing assay (migration), A2058 cells
Protocol: (§2) Cells were plated in 12 well plates and allowed to grow into a confluent layer in complete RPMI (for A2058 cells) or complete McCoy's 5A medium (for HTB63 cells). As indicated, cells were pre-incubated with the Box5 peptide (100 μM) or control solvent for 40 min with continuous agitation. A wound was then inflicted by making a scratch through the confluent layer of cells with a pipette tip. During the migration period of the assay, cells were incubated either in serum-free medium or in the case of HTB63 cells in their own serum-free-conditioned medium collected from cells cultured for 48 h and used within 2 days after collection. The exact conditions of each experiment are described above. To avoid loss of activity, cell medium was changed after 24 hours. A picture for each scratch was taken in the same area of cells at 0, 16, 24, 40 and 48 hours, and wound healing was measured as percentage of wound area closed. For each experimental condition wound healing was analysed in triplicate. All data were based on 3 to 8 separate experiments as indicated.

HTB63 melanoma cells [4] = assay: Wound-healing assay (migration), HTB63 cells; details: 100 μM peptide in conditioned medium containing secreted Wnt-5a
Protocol: as §2

HTB63 melanoma cells [5] = assay: BD Matrigel invasion chamber assay, HTB63 cells; details: 100 μM Box5, 24 hours
Protocol: as §1

PKC = assay: MARCKS phosphorylation (PKC activity) in A2058 cells, Western blot; details: 100 μM Box5 overnight, rWnt-5a 0.2 μg/ml
Protocol: The cells were either directly lysed in 1× Laemmli buffer containing DTT and boiled for 10 min, or lysed in buffer containing 50 mM Tris-HCl (pH 7.5), 1% Triton X-100, 100 mM NaCl, 10 mM MgCl2, 20% glycerol, 1 mM Na3VO4, and protease inhibitors (20 μg/ml aprotinin, 1 μg/ml leupeptin, 2.5 mM benzamidine, and 2 mM pefabloc). Cell treated with lysis buffer were centrifuged at 15,000 rpm for 5 min at 4° C. The protein content in each sample was determined and adjusted to ensure equal loading of protein in each lane. Thereafter, 50 mM DTT and 5× concentrated Laemmli buffer was added and the samples boiled for 5 min. The samples were separated by SDS polyacrylamide gel electrophoresis and subsequently transferred to PVDF membranes. For immunoblotting the membranes were blocked in PBS supplemented with 0.2% Tween 20 and 1% non-fat milk for Wnt-5a or 3% non-fat milk as for all other antibodies for 1 h. […] Finally, the Ab-antigen complexes were detected using enhanced chemiluminescence. […]
In the present study the level of PKC auto-phosphorylation (Weeraratna et al., 2002, Dissanayake et al., 2007) was not estimated since its relation to PKC kinase activity is unclear. Instead the effects of Wnt-5a and Box5 on the phosphorylation of the endogenous PKC substrate MARCKS were analyzed as a direct means of estimating the activity level of PKC in the melanoma cells. […]

A2058 melanoma cells [6] = assay: Cell adhesion assay, A2058 cells; details: TGF-β1, 60 min adhesion
Protocol: Cells pre-treated and stimulated as described below were detached with Versene, re-suspended in serum-free RPMI medium and samples containing 30,000 cells from each treatment group were added to each well of a 96-well plate The cells were allowed to adhere for 60 min at 37° C. in a humidified atmosphere of 5% carbon dioxide after which the non-adherent cells were washed away with PBS. The adherent cells were fixed in 1% glutaraldehyde for 10 min at room temperature and then stained with 0.5% crystal violet in 20% methanol for 10 min. Finally the stain from each group of cells was dissolved in 50% acetic acid. The amount of dissolved stain from each well was thereafter measured in a Fluostar plate reader (BMG Lab Technologies GmbH, Offenberg, Germany) at 544 nm. The individual samples from each separate experiment were analysed in quadruplicate and the accumulated data were based on 5 separate experiments. The results are illustrated in FIG. 4. • A) A2058 melanoma cells were stimulated with the indicated concentrations of Wnt-5a, detached with Versene and resuspended as single cells in serum-free medium in the presence or absence of recombinant Wnt-5a at the indicated concentrations. Cells were then allowed to adhere in a 96-well plate. After a period of 60 min the non-adherent cells were washed away while the adherent cells were stained and their number determined. This number is presented as a percentage of the control (no Wnt-5a) stimulation (FIG. 4A) • B) A2058 melanoma cells were cultured to confluence in a 12-well plate after which a scratch was inflicted in each well, the medium was changed to fresh serum-free medium lacking (closed circles) or containing 0.2 μg/ml Wnt-5a (open squares). (FIG. 4B) • C) A2058 melanoma cells were cultured to confluence in a 12-well plate after which a scratch was inflicted to each well, the medium was changed to fresh serum-free medium in the absence of any additive (closed circle), the presence of 0.2 μg/ml Wnt-5a alone (open squares) or the presence of 0.2 μg/ml Wnt-5a with 100 μM Box5 (open triangle). (FIG. 4C) • D) HTB63 melanoma cells were cultured to confluence in a 12-well dish after which a scratch was inflicted to each well, the medium was changed to fresh serum-free medium (closed circle), conditioned medium (open squares) or conditioned medium supplemented with 100 μM Box5 (open triangle). To record changes in migration in panels B-D, a picture was taken from each scratch/well from the same area of cells after 0, 16, 24, 40 or 48 hours, and the wound-healing was expressed as percentage of wound area closed. […] The cells were then allowed to invade for 24 hours after which the attached cells on the lower side of the membrane were counted. […]

[7] = tested on: Wnt-5a protein expression; assay: Wnt-5a protein expression in A2058 cells, Western blot
Protocol: The cells were either directly lysed in 1× Laemmli buffer containing DTT and boiled for 10 min, or lysed in buffer containing 50 mM Tris-HCl (pH 7.5), 1% Triton X-100, 100 mM NaCl, 10 mM MgCl2, 20% glycerol, 1 mM Na3VO4, and protease inhibitors (20 μg/ml aprotinin, 1 μg/ml leupeptin, 2.5 mM benzamidine, and 2 mM pefabloc). Cell treated with lysis buffer were centrifuged at 15,000 rpm for 5 min at 4° C. The protein content in each sample was determined and adjusted to ensure equal loading of protein in each lane. Thereafter, 50 mM DTT and 5× concentrated Laemmli buffer was added and the samples boiled for 5 min. The samples were separated by SDS polyacrylamide gel electrophoresis and subsequently transferred to PVDF membranes. For immunoblotting the membranes were blocked in PBS supplemented with 0.2% Tween 20 and 1% non-fat milk for Wnt-5a or 3% non-fat milk as for all other antibodies for 1 h. Thereafter the membranes were incubated for 1 h at room temperature or overnight at 4° C. with the indicated primary Ab (1:25,000 for β-actin; 1:1,000 for Wnt-5a and 1:1,000 for TGF-β1) in 2% non-fat milk or 1.5% BSA. After extensive washing in PBS with 0.2% Tween, the membranes were incubated for 1 h with a horseradish peroxidase-conjugated secondary Ab in 2% non-fat milk or 1.5% BSA and again extensively washed. Finally, the Ab-antigen complexes were detected using enhanced chemiluminescence. […]

endothelin-1: G-protein coupled control receptor ligand from Sigma Aldrich (CSCSSLMDKECVYFCHLDIIW; disulfide 1-15, 3-11; ends not checked; UniProt P05305 53-73, looked up) [reference compound]
Cytosolic Ca^2+ response in A2058 cells, control G-protein coupled receptor ligands [1]: prompt responses

CC(=O)OCOC(=O)CN(CC(=O)OCOC(C)=O)c1ccc(C)cc1OCCOc1cc(C)ccc1N(CC(=O)OCOC(C)=O)CC(=O)OCOC(C)=O [MAPT/AM, reference compound]
Effect on pro-invasive effect of Wnt-5a on A2058 cells (A2058 melanoma cells [2]; 10 μM MAPT/AM 30 minutes pre-incubation, then 1 μM for 24 hours): completely abolished | Effect on Wnt-5a-stimulated cytosolic Ca^2+ signal ([1]; 10 μM MAPT/AM for 30 minutes, rWnt-5a 0.1 μg/ml): inhibited

t-boc-Met-Asp-Gly-Cys-Glu-Leu (Boc-MDGCEL) [Box5, novel Wnt-5a-derived N-butyloxycarbonyl hexapeptide (Met-Asp-Gly-Cys-Glu-Leu), Wnt-5a antagonist]
Effect on Wnt-5a-induced migration of A2058 cells (A2058 melanoma cells [3]; 100 μM Box5, 0.2 μg/ml Wnt-5a, wound area closed over 0-48 hours): abolished | Effect on intrinsic (basal) migration of A2058 cells (A2058 melanoma cells [3]; 100 μM Box5, no Wnt-5a, wound area closed over 0-48 hours): no effect | Effect on TGF-β1-induced migration of A2058 cells (A2058 melanoma cells [3]; 100 μM Box5 pre-incubated 40 minutes, 5 ng/ml TGF-β1): abolished; also recorded: blocked | Effect on migration of HTB63 cells (HTB63 melanoma cells [4]): inhibits | Effect on Wnt-5a-induced invasion of A2058 cells (A2058 melanoma cells [2]; 100 μM Box5, 0.2 μg/ml Wnt-5a, 24 hours): abolished | Effect on basal invasion of A2058 cells (A2058 melanoma cells [2]; 100 μM Box5, 24 hours): no effect | Effect on invasion of HTB63 cells (endogenous Wnt-5a) (HTB63 melanoma cells [5]): inhibit | Effect on charbacol-induced Ca^2+ signaling ([1]; 100 μM Box5, charbacol 5 μM): no significant effect | Effect on endothelin-1-induced Ca^2+ signaling ([1]; 100 μM Box5, endothelin-1 10 nM): no significant effect | Inhibition of Wnt-5a-induced Ca^2+ signal (peak values) ([1]; 100 μM Box5 overnight pre-incubation, 0.1 μg/ml Wnt-5a): more than 70% | Effect on Wnt-5a-induced MARCKS phosphorylation (PKC): inhibited; also recorded: abolished

TGF-β1: human recombinant TGF-β1 protein from R&D Systems
Effect on migration of A2058 cells (A2058 melanoma cells [3]; 5 ng/ml TGF-β1): increased | Effect on migration of A2058 cells in the invasion assay (A2058 melanoma cells [2]; 5 ng/ml TGF-β1, 24 hours): inhibited | Concentration giving maximal effect on adhesion of A2058 cells (A2058 melanoma cells [6]): 5 ng/mL | Effect on adhesive capacity of A2058 cells (A2058 melanoma cells [6]): stimulated | Concentration giving near maximal Wnt-5a expression ([7]; TGF-β1): 5 ng/mL | Wnt-5a protein expression in A2058 cells ([7]; different concentrations of recombinant TGF-β1, 36 h): increased expression

C[N+](C)(C)CCOC(N)=O [carbachol, reference compound]
Cytosolic Ca^2+ response in A2058 cells, control G-protein coupled receptor ligands [1]: prompt responses

B1: Wnt-3a: human recombinant Wnt-3a protein, canonical Wnt ligand (protein, UniProt P56704 19-352, looked up)
Protein Wnt-3a: SYPIWWSLAVGPQYSSLGSQPILCASIPGLVPKQLRFCRNYVEIMPSVAEGIKIGIQECQHQFRGRRWNCTTVHDSLAIFGPVLDKATRESAFVHAIASAGVAFAVTRSCAEGTAAICGCSSRHQGSPGKGWKWGGCSEDIEFGGMVSREFADARENRPDARSAMNRHNNEAGRQAIASHMHLKCKCHGLSGSCEVKTCWWSQPDFRAIGDFLKDKYDSASEMVVEKHRESRGWVETLRPRYTYFKVPTERDLVYYEASPNFCEPNPETGSFGTRDRTCNVSSHGIDGCDLLCCGRGHNARAERRREKCRCVFHWCCYVSCQECTRVYDVHTCK
Stimulation of invasion of A2058 cells (A2058 melanoma cells [2]; 0.1 μg/ml Wnt-3a, 24 hours): not seen
